For data set [1], the system named is scopolamine-induced amnesia models. In words: Anti-dementia effect in scopolamine-induced amnesia models, step-through type passive avoidance (recall trial). Conditions: oral, scopolamine 1 mg/kg i.p., 24 h after acquisition trial. The class given is in vivo, Male Wistar rats. How it is done:
The effect of Compound (I) on dementia was determined by scopolamine-induced amnesia models (Basic, Clinical, and Therapeutic Aspects of Alzheimer's and Parkinson's Diseases: Vol. 2; T. Nagatsu, et al. edt; pp449; Plenum Press New York; 1990).
[…] The test was performed with a step-through type passive avoidance apparatus (the bright and dark box).
The bright and dark box was made up of a bright compartment (25×25×25 cm) lighted by 4W white fluorescent light and a dark compartment (25×25×25 cm). […] In order to give a foot shock, the electric current (2 mA: 2 sec) may be passed through the grid floor of the dark compartment.
The compound to be tested was suspended in 0.3% aqueous solution of carboxymethyl cellulose (CMC) and the suspension was orally administered 60 minutes before the acquisition trial. Only 0.3% CMC was given to the control group.
Amnesia-inducing treatment was carried out by intraperitoneally administering 1 mg/kg of scopolamine 30 minutes before the following acquisition trial.
The training for acquisition of learning (acquisition trial) was carried out. The rat was introduced into the bright compartment, and after 5 to 10 seconds, the guillotine door was opened. The rat in the bright compartment rapidly moved into the dark compartment. As soon as the whole body of the rat entered the dark compartment, the guillotine door was closed and an electric current of 2 mA was passed through the grid floor for two seconds (foot shock). Immediately after the foot shock, the rat was taken out of the dark compartment.
The test trial for observing the retention and recall of the memory (recall trial) was carried out as follows. Twenty-four hours after the acquisition trial, the rat was placed in the bright compartment and the guillotine door was opened. The length of time before the rat entered the dark compartment (latency) was measured. The latency was measured up to 600 seconds and the latency longer than 600 seconds was recorded as 600 seconds.
In the experiment, the amnesia control group had undergone the amnesia-inducing treatment and the normal control group had not undergone the amnesia-inducing treatment.
The anti-dementia effect was evaluated by Mann Whitney U-test to determine whether there was a significant difference in latency between the test compound treated group and the amnesia control group.

For a further data set, the system named is dd strain male mice. In words: Acute Toxicity Test, minimum lethal dose (MLD). The class given is in vivo. Conditions: oral, mortality 7 days after administration. The source says: Compounds 1 and 5 were orally administered to dd strain male mice (body weight: 20±1 g, 3 mice/group). The mortality was observed 7 days after the administration to determine the minimum lethal dose (MLD).

Each structure is given as a SMILES string. Bounds are passed on as bounds.

For the compound `CCCn1c(=O)c2nc(C3CCCC3)[nH]c2n(CCc2ccc(NC(C)=O)cc2)c1=O` [Compound 1, 3-(4-acetylaminophenethyl)-8-cyclopentyl 1-propylxanthine], the “Recall trial mean reaction latency” value worked out at 137.3 ± 44.5 s in data set [1] (0.02 mg/Kg, 17 animals); 174.8 ± 56.1 s in data set [1] (0.08 mg/Kg, 18 animals); 130.4 ± 38.5 s in data set [1] (0.31 mg/Kg, 18 animals); 170.3 ± 50.4 s in data set [1] (1.25 mg/Kg, 17 animals); 187.2 ± 50.2 s in data set [1] (5.0 mg/Kg, 18 animals); 116.2 ± 43.4 s in data set [1] (20.0 mg/Kg, 17 animals). In addition, the “minimum lethal dose (MLD)” value with dd strain male mice is more than 300 mg/kg.
`CCCn1c(=O)c2[nH]c(C3CCCC3)nc2n(CCc2ccc(NC(=O)C3CCCC3)cc2)c1=O` [Compound 5, 3-[4-(cyclopentanecarbonylamino)-phenethyl]-8-cyclopentyl-1-propylxanthine]: the “minimum lethal dose (MLD)” value in the data set with dd strain male mice is more than 300 mg/kg.

Source of the values: patent US5336769A, “Xanthine derivatives” (Kyowa Hakko Kogyo Co., Ltd., priority 1992, dated 1994).
